From PubChem BioAssay AID624472 (The Scripps Research Institute Molecular Screening Center, 2012)

Target: Monoacylglycerol lipase ABHD6 (Mus musculus) (UniProt Q8R2Y0)
Test: ABHD6 inhibition in mouse proteome, late-stage follow-up, selectivity assay for DAGLb inhibitor project, biochemical, gel-based competitive ABPP, fluorescence, enantiomers (AID 624472)
Conditions: at 10 µM (top of the series)

Monoacylglycerol lipase ABHD6 (Mus musculus), sequence (Q8R2Y0 whole entry, looked up): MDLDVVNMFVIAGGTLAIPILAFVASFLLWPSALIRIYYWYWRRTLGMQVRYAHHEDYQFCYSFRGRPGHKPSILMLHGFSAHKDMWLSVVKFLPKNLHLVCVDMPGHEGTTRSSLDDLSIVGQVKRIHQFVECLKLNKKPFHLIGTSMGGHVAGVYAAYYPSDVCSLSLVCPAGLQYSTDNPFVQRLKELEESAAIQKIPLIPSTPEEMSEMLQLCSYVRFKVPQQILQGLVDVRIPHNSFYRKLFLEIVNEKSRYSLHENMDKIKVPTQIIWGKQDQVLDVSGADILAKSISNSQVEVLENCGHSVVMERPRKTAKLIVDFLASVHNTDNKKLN

- inhibition: 100%
SMILES: O=C(N1CCCCC1Cc1ccccc1)n1cc(-c2ccc(Br)cc2)nn1 (stereo unspecified)
